How the values were obtained:
[1] = molecular target: T1, human CB2 receptor (Homo sapiens, UniProt P34972); experiment: CB2 receptor internalization efficacy relative to CP55,940 (human); assay type: cell-based
Description: (§1) Methods of treating pain, including visceral pain with APD371 are described in US patent application publication no. 2020-0078358, which is herein incorporated by reference in its entirety.

[2] = tested on: painful peripheral diabetic neuropathy; experiment: painful peripheral diabetic neuropathy model; conditions: in vivo
Description: as §1

[3] = tested on: paclitaxel-induced neuropathic pain; experiment: paclitaxel-induced neuropathic pain model; conditions: in vivo
Description: as §1

[4] = tested on: subjects with irritable bowel syndrome experiencing abdominal pain; conditions: 50 mg tid, week 12, subgroup with baseline AAPS >= 6.5 (moderate to severe pain)
[5] = molecular target: T2, rat CB2 receptors (Rattus norvegicus, UniProt Q9QZN9); experiment: CB2 receptor internalization efficacy relative to CP55,940 (rat); assay type: cell-based
T2 sequence (Q9QZN9 1-360): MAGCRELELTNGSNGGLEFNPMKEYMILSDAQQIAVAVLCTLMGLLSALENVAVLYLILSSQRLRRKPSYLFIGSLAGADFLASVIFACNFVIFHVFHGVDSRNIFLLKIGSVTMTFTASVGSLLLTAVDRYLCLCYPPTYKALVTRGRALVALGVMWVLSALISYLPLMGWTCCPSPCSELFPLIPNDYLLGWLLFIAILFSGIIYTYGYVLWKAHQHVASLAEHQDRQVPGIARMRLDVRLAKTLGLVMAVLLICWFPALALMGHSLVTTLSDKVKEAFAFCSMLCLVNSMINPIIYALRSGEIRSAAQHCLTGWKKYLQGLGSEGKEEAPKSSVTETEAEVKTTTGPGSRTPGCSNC
Description: as §1

[6] = molecular target: T1, human CB2 receptor; experiment: selectivity for human CB2 receptor versus human CB1 receptor; conditions: human CB2 vs human CB1
Description: as §1

[7] = tested on: osteoarthritis pain; experiment: osteoarthritis pain model; assay type: in vivo
Description: as §1

T1 sequence (P34972 whole entry): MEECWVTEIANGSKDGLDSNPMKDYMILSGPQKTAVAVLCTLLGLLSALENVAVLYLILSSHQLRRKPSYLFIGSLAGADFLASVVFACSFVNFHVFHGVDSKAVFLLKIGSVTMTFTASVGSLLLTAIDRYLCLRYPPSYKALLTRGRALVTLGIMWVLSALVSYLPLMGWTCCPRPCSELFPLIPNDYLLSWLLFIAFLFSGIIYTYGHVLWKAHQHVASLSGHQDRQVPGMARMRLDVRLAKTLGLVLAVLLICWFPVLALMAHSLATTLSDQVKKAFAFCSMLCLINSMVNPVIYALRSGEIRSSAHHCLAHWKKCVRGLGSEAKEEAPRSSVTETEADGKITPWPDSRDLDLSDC

Q: How did the “receptor internalization efficacy relative to CP55,940” value [1] turn out when CC(C)(C)[C@@H](CO)NC(=O)c1nn(-c2c[n+]([O-])ccn2)c2c1C[C@@H]1C[C@H]21 [Compound A, (1aS,5aS)-2-(4-Oxy-pyrazin-2-yl)-1a,2,5,5a-tetrahydro-1H-2,3-diaza-cyclopropa[a]pentalene-4-carboxylic acid ((S)-1-Hydroxymethyl-2,2-dimethyl-propyl)-amide] was run?
A: 96%

Q: And the “efficacy in model of painful peripheral diabetic neuropathy” value [2]?
A: sustained efficacy

Q: What about the “efficacy in model of paclitaxel-induced neuropathic pain” value [3] of the same molecule?
A: sustained efficacy

Q: What about the “reduction in AAPS from baseline” value [4] of the same molecule?
A: 3.93 points

Q: And the “reduction in AAPS compared to placebo” value ([4]; p=0.01)?
A: 1.64 points

Q: What about the “receptor internalization efficacy relative to CP55,940” value [5] of the same molecule?
A: 105%

Q: And the “selectivity for the human CB2 receptor versus the human CB1 receptor” value [6]?
A: > 1,000 fold

Q: And the “efficacy in model of osteoarthritis pain” value ([7]; in vivo)?
A: sustained efficacy

Q: And the “duration of in vivo efficacy following dosing” value ([7]; osteoarthritis pain model, despite rapidly declining plasma concentrations)?
A: maintained in vivo efficacy for four hours following dosing
